Patent publication US20160024421A1, “IONIC LIQUIDS CONTAINING QUATERNARY PHOSPHONIUM CATIONS AND CARBOXYLATE ANIONS, AND THEIR USE AS LUBRICANT ADDITIVES” (UT-Battelle, LLC, priority 2014, published 2016)
Read-outs that look alike come from different tables or passages of the source.

Key:
Assay type in all cases: physicochemical
Density = assay: Density
[1] = Kinematic viscosity (Petrolab Minivis II viscometer); set-up: unit not given here
Description: (§1) Thermogravimetric analysis (TGA) was performed on a thermogravimetric analyzer (TGA-2950, TA instruments) at a 10° C./min heating rate in air. […] The kinematic viscosities were measured on a […] viscometer.

[2] = Thermogravimetric analysis (decomposition temperature)
Description: as §1

| Compound | Density @ 20° C. (Density; 20° C.) [g/mL] | Kinematic Viscosity @ 40° C. ([1]; 40° C.) | Decomp. temperature ([2]; TGA, 10° C./min heating rate in air) [°C] | Density @ 20° C. (Density) [g/mL] | Decomp. temperature [2] [°C] | Kinematic Viscosity @ 40° C. [1] |
| --- | --- | --- | --- | --- | --- | --- |
| CCCCCCCCCC(=O)[O-].CCCCCCCCCCCCCC[P+](CCCCCC)(CCCCCC)CCCCCC [[P66614][C9H19COO]s] | 0.89 | solid |  |  |  |  |
| CCCCCCCCCCCCCCCCCC(=O)[O-].CCCCCCCCCCCCCC[P+](CCCCCC)(CCCCCC)CCCCCC [[P66614][C17H35COO]s] | 0.88 |  | 308 |  |  |  |
| trihexyltetradecylphosphonium 2-ethylhexanoate [[P66614][C7H15COO]b] |  |  |  | 0.88 | 308 | 184.8 |
| trihexyltetradecylphosphonium octanoate [[P66614][C7H15COO]s] |  |  |  |  | 261 | 122.2 |
